One compound from US20100324319A1, “Tame based chelators and uses thereof” (priority 2003, published 2010) can be followed below.

A short description of series [1]: transchelation experiments with ^111In^3+ labelled chelators, DTPA as competing ligand. The format is physicochemical. As to conditions: ^111In labelled, after 24 hours. The procedure:
(§1) The chelators defined by compounds 8 and 15 in FIG. 1 and as described, supra, were tested in transchelation experiments, using ^111In^3+, and ^67Ga^3+, using the known chelator DTPA as a competing ligand. Labelling was carried out using standard methods.

Series [2] can be described thus: transchelation experiments with ^67Ga^3+ labelled chelators, DTPA as competing ligand. Format: physicochemical. The following applies: ^67Ga labelled, after 10 days. Here is the method: as §1
Labelled TAME-HexA was 94% intact after 10 days, and 99% of the labelled TAME-HexB was stable after the same period of time.

As to `O=C(O)CN(CC(=O)O)CC(CN(CC(=O)O)CC(=O)O)(CN(CC(=O)O)CC(=O)O)CN(Cc1ccccc1)Cc1ccccc1` [Compound 15, 2-[Bis(carboxymethylamino)methyl]-2-[(dibenzylamino)methyl]-propylene-1,3-dinitrilotetraacetic acid], the labelled material intact entry in series [1] is given as “about 10%”. Further, the “labelled chelator intact / stable” value in series [2] stood at 99%.
